In PubChem BioAssay AID256 (DTP/NCI, 2004) one finds T/C data, which are given here for eight molecules.

The experiment deals with CD2F1 mice, L1210 leukemia ip, survival T/C. In words: NCI In Vivo Anticancer Drug Screen. Data for tumor model L1210 Leukemia (intraperitoneal) in CD2F1 (CDF1) mice. The note with it: higher = longer survival. Summed up:
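Transplantable tumor in mice; compound-treated vs vehicle-treated groups. Read-out = treated/control ratio of the measured endpoint.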

[1] abbreviates: endpoint: mean survival time, dose: 100.0 mg/kg/injection, schedule: Q01DX009 (ip), vehicle: Klucel (hydroxypropylcellulose) (HPC).
[2] abbreviates: endpoint: mean survival time, dose: 100.0 mg/kg/injection, schedule: Q04DX002 (ip), vehicle: saline with Tween-80.
Where [3] appears, read: endpoint: mean survival time, dose: 200.0 mg/kg/injection, schedule: Q04DX002 (ip), vehicle: saline with Tween-80.
The mark [4] stands for this setting: endpoint: mean survival time, dose: 100.0 mg/kg/injection, schedule: Q01DX001 (ip), vehicle: saline with Tween-80.
The mark [5] stands for this setting: endpoint: mean survival time, dose: 200.0 mg/kg/injection, schedule: Q01DX001 (ip), vehicle: saline with Tween-80.
Setting [6] is: endpoint: mean survival time, dose: 400.0 mg/kg/injection, schedule: Q01DX001 (ip), vehicle: saline with Tween-80.

Structures are written as SMILES. Several values for one entry are separate records, joined by “and”; a condition that tells them apart may be missing. Identical values can stand only once. Inconclusive results and toxic doses are left out.

As to `OCC1OC(n2cnc3c(=S)nc[nH]c32)C(O)C1O` (centres undefined), the T/C (endpoint: mean survival time, dose: 75.0 mg/kg/injection, schedule: Q01DX005 (ip), vehicle: saline) is 104 % of control; the T/C (endpoint: mean survival time, dose: 75.0 mg/kg/injection, schedule: Q01DX009 (ip), vehicle: saline) was 107 % of control; the T/C (endpoint: mean survival time, dose: 75.0 mg/kg/injection, schedule: Q01DX009 (oral), vehicle: saline) was 97 % of control; the T/C (endpoint: mean survival time, dose: 100.0 mg/kg/injection, schedule: Q01DX005 (ip), vehicle: saline) was 122 % of control; the T/C (endpoint: mean survival time, dose: 100.0 mg/kg/injection, schedule: Q01DX007 (ip), vehicle: Klucel (hydroxypropylcellulose) (HPC)) was 115 % of control; the T/C (endpoint: mean survival time, dose: 100.0 mg/kg/injection, schedule: Q01DX007 (ip), vehicle: saline) was 152 % of control. Further, the T/C was 118 % of control under setting [1]; 154 % of control (endpoint: mean survival time, dose: 100.0 mg/kg/injection, schedule: Q01DX009 (ip), vehicle: saline); 95 % of control (endpoint: mean survival time, dose: 100.0 mg/kg/injection, schedule: Q03DX003 (ip), vehicle: Klucel (hydroxypropylcellulose) (HPC)); 102 % of control (endpoint: mean survival time, dose: 100.0 mg/kg/injection, schedule: Q04DX003 (ip), vehicle: Klucel (hydroxypropylcellulose) (HPC)); 113 % of control (endpoint: mean survival time, dose: 100.0 mg/kg/injection, schedule: Q04DX003 (ip), vehicle: saline); 110 % of control (endpoint: mean survival time, dose: 112.0 mg/kg/injection, schedule: Q01DX010 (ip), vehicle: saline). For the same molecule, the T/C by setting is: (endpoint: mean survival time, dose: 150.0 mg/kg/injection, schedule: Q01DX005 (ip), vehicle: saline) 107 % of control; (endpoint: mean survival time, dose: 150.0 mg/kg/injection, schedule: Q01DX009 (ip), vehicle: saline) 116 % of control; (endpoint: mean survival time, dose: 150.0 mg/kg/injection, schedule: Q01DX009 (oral), vehicle: saline) 98 % of control; (endpoint: mean survival time, dose: 200.0 mg/kg/injection, schedule: Q01DX007 (ip), vehicle: saline) 157 % of control; (endpoint: mean survival time, dose: 200.0 mg/kg/injection, schedule: Q01DX009 (ip), vehicle: saline) 179 % of control; (endpoint: mean survival time, dose: 200.0 mg/kg/injection, schedule: Q03DX003 (ip), vehicle: Klucel (hydroxypropylcellulose) (HPC)) 102 % of control. For the same molecule, the T/C runs as follows: (endpoint: mean survival time, dose: 200.0 mg/kg/injection, schedule: Q03DX003 (ip), vehicle: saline) 150 % of control; (endpoint: mean survival time, dose: 200.0 mg/kg/injection, schedule: Q04DX003 (ip), vehicle: Klucel (hydroxypropylcellulose) (HPC)) 100 % of control; (endpoint: mean survival time, dose: 200.0 mg/kg/injection, schedule: Q04DX003 (ip), vehicle: saline) 150 % of control; (endpoint: mean survival time, dose: 240.0 mg/kg/injection, schedule: Q01DX005 (ip), vehicle: saline) 164 % of control; (endpoint: mean survival time, dose: 300.0 mg/kg/injection, schedule: Q01DX002 (sc), vehicle: saline) 109 % of control; (endpoint: mean survival time, dose: 300.0 mg/kg/injection, schedule: Q01DX009 (oral), vehicle: saline) 105 % of control. Besides, the T/C is 108 % of control (endpoint: mean survival time, dose: 300.0 mg/kg/injection, schedule: Q04DX003 (ip), vehicle: saline); 104 % of control (endpoint: mean survival time, dose: 400.0 mg/kg/injection, schedule: Q01DX007 (ip), vehicle: saline); 116 % of control (endpoint: mean survival time, dose: 400.0 mg/kg/injection, schedule: Q01DX009 (ip), vehicle: saline); 111 % of control (endpoint: mean survival time, dose: 400.0 mg/kg/injection, schedule: Q03DX003 (ip), vehicle: Klucel (hydroxypropylcellulose) (HPC)); 154 % of control (endpoint: mean survival time, dose: 400.0 mg/kg/injection, schedule: Q03DX003 (ip), vehicle: saline); 111 % of control (endpoint: mean survival time, dose: 400.0 mg/kg/injection, schedule: Q04DX003 (ip), vehicle: Klucel (hydroxypropylcellulose) (HPC)). Further, the T/C (endpoint: mean survival time, dose: 400.0 mg/kg/injection, schedule: Q04DX003 (ip), vehicle: saline) was 175 % of control; the T/C (endpoint: mean survival time, dose: 480.0 mg/kg/injection, schedule: Q01DX005 (ip), vehicle: saline) was 156 % of control; the T/C (endpoint: mean survival time, dose: 600.0 mg/kg/injection, schedule: Q01DX001 (ip), vehicle: saline) is 97 % of control; the T/C (endpoint: mean survival time, dose: 600.0 mg/kg/injection, schedule: Q01DX002 (ip), vehicle: saline) was 104 % of control; the T/C (endpoint: mean survival time, dose: 600.0 mg/kg/injection, schedule: Q01DX002 (sc), vehicle: saline) is 116 % of control; the T/C (endpoint: mean survival time, dose: 600.0 mg/kg/injection, schedule: Q01DX009 (oral), vehicle: saline) is 97 % of control. The T/C (endpoint: mean survival time, dose: 600.0 mg/kg/injection, schedule: Q03HX008 (ip), vehicle: saline) is 119 % of control; the T/C (endpoint: mean survival time, dose: 600.0 mg/kg/injection, schedule: Q03HX016 (ip), vehicle: saline) was 121 % of control; the T/C (endpoint: mean survival time, dose: 600.0 mg/kg/injection, schedule: Q04DX003 (ip), vehicle: saline) was 114 % of control; the T/C (endpoint: mean survival time, dose: 600.0 mg/kg/injection, schedule: Q08DX002 (ip), vehicle: saline) is 104 % of control; the T/C (endpoint: mean survival time, dose: 900.0 mg/kg/injection, schedule: Q01DX002 (ip), vehicle: saline) is 118 % of control; the T/C (endpoint: mean survival time, dose: 1200.0 mg/kg/injection, schedule: Q01DX001 (ip), vehicle: saline) is 97 % of control. Besides, the T/C was 116 % of control (endpoint: mean survival time, dose: 1200.0 mg/kg/injection, schedule: Q01DX002 (ip), vehicle: saline); 113 % of control (endpoint: mean survival time, dose: 1200.0 mg/kg/injection, schedule: Q01DX009 (ip), vehicle: saline); 154 % of control (endpoint: mean survival time, dose: 1200.0 mg/kg/injection, schedule: Q03HX016 (ip), vehicle: saline); 155 % of control and 158 % of control (endpoint: mean survival time, dose: 1200.0 mg/kg/injection, schedule: Q03HX024 (ip), vehicle: saline); 115 % of control (endpoint: mean survival time, dose: 1200.0 mg/kg/injection, schedule: Q08DX002 (ip), vehicle: saline); 98 % of control (endpoint: mean survival time, dose: 2400.0 mg/kg/injection, schedule: Q01DX001 (ip), vehicle: saline). Also, the T/C reads like this: (endpoint: mean survival time, dose: 2400.0 mg/kg/injection, schedule: Q03HX016 (ip), vehicle: saline) 156 % of control; (endpoint: median survival time, dose: 40.0 mg/kg/injection, schedule: Q01DX009 (ip), vehicle: saline) 114 % of control and 122 % of control; (endpoint: median survival time, dose: 160.0 mg/kg/injection, schedule: Q01DX009 (ip), vehicle: saline) 155 % of control and 185 % of control; (endpoint: median survival time, dose: 320.0 mg/kg/injection, schedule: Q01DX009 (ip), vehicle: saline) 185 % of control; (endpoint: median survival time, dose: 400.0 mg/kg/injection, schedule: Q01DX005 (ip), vehicle: water) 150 % of control.

For the molecule `CN(C)c1ccc(/C=N/NC(=O)c2ccccc2NC(=O)c2ccccc2Cl)cc1`, the T/C is 87 % of control (endpoint: mean survival time, dose: 50.0 mg/kg/injection, schedule: Q01DX009 (ip), vehicle: Klucel (hydroxypropylcellulose) (HPC)); 94 % of control under setting [1]; 91 % of control (endpoint: mean survival time, dose: 200.0 mg/kg/injection, schedule: Q01DX009 (ip), vehicle: Klucel (hydroxypropylcellulose) (HPC)).

Consider `ClCCN(Cc1ccccc1)Cc1ccccc1`, for which the T/C is 100 % of control (endpoint: mean survival time, dose: 3.13 mg/kg/injection, schedule: Q01DX009 (ip), vehicle: saline with Tween-80); 102 % of control (endpoint: mean survival time, dose: 6.25 mg/kg/injection, schedule: Q01DX009 (ip), vehicle: saline with Tween-80); 96 % of control (endpoint: mean survival time, dose: 12.5 mg/kg/injection, schedule: Q01DX009 (ip), vehicle: saline with Tween-80).

For the molecule `O=C1Nc2ccccc2/C1=C/c1c[nH]c2ccccc12`, the T/C runs as follows: (endpoint: mean survival time, dose: 50.0 mg/kg/injection, schedule: Q04DX002 (ip), vehicle: saline with Tween-80) 103 % of control; under setting [2], 90 % of control; under setting [3], 107 % of control.

`O=C(O)CCC1CC(=O)OC12CCCCC2` (centres undefined): the T/C is, setting by setting: under setting [4], 96 % of control; under setting [5], 96 % of control; under setting [6], 91 % of control.

Consider `C(CC1CO1)CC1OC1CC1CO1` (centres undefined), for which the T/C (endpoint: mean survival time, dose: 39.0 mg/kg/injection, schedule: Q01DX009 (ip), vehicle: saline) is 109 % of control; the T/C (endpoint: mean survival time, dose: 75.0 mg/kg/injection, schedule: Q01DX001 (ip), vehicle: saline) was 109 % of control; the T/C (endpoint: mean survival time, dose: 133.0 mg/kg/injection, schedule: Q01DX009 (ip), vehicle: saline) was 156 % of control; the T/C (endpoint: mean survival time, dose: 150.0 mg/kg/injection, schedule: Q01DX001 (ip), vehicle: saline) was 119 % of control.

For `CCn1c(C)cc(=O)c2ccccc21`, the T/C under setting [2] was 105 % of control and the T/C under setting [3] was 94 % of control.

As for `O=C(O)Cc1ccc(O)cc1`, the T/C under setting [4] is 101 % of control, the T/C under setting [5] is 101 % of control and the T/C under setting [6] is 108 % of control.
